Common to all, as to assay: SelectScreen Kinase Profiling, single point inhibition and IC50 for off-target kinases
Common to all, as to assay type: biochemical

The target in assay [1] is off-target kinases (Homo sapiens, UniProt Q04759). As to conditions: PRKCQ (PKC theta); Cmpd1 1000 μM; ATP Km app; ZLYTE.
The target in assay [2] is off-target kinases (Homo sapiens, UniProt P35916). As to conditions: FLT4 (VEGFR3), ATP Km app, ZLYTE.
Assay [3] addresses T1, off-target kinases (Homo sapiens, UniProt P52333).
T1 sequence (P52333 1-1124): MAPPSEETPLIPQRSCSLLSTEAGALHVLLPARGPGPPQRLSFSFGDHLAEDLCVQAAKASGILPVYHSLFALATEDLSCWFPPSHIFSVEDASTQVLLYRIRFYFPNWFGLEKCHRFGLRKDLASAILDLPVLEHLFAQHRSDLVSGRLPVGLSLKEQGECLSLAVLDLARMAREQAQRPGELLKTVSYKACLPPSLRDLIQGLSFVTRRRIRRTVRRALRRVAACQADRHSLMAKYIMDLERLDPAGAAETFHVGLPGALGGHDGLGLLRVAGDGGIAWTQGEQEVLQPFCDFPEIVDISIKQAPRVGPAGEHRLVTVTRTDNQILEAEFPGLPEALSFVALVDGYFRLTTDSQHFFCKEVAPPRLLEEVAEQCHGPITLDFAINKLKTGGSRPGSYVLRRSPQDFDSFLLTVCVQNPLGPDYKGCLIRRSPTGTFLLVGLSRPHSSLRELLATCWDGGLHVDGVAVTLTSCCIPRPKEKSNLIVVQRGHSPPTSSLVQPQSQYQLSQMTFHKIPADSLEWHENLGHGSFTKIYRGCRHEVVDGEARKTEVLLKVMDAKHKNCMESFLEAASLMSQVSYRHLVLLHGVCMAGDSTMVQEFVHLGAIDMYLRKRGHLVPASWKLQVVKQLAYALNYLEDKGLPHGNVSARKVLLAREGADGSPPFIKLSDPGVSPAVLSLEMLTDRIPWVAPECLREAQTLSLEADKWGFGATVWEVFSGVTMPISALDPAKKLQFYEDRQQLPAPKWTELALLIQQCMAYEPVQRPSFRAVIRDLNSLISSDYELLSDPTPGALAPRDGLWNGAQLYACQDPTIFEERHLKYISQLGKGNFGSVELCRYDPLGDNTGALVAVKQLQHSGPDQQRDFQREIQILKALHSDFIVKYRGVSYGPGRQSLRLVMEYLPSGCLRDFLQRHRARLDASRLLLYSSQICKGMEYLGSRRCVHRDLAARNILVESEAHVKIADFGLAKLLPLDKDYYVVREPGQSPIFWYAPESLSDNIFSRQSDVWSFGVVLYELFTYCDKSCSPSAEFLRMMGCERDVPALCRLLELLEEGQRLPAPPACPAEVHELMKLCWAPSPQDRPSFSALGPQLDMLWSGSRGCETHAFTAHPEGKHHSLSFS
As to conditions: JAK3, ATP Km app, ZLYTE.

Assay [4] has as its target off-target kinases (Homo sapiens, UniProt Q07912). As to conditions: TNK2 (ACK), LanthaScreen Binding. In general terms: In TR-FRET formats the signal depends on donor and acceptor labels being close together.
In assay [5] the target is off-target kinases (Homo sapiens, UniProt P00519, E255K). The conditions noted are these: ABL1 E255K, ATP Km app, ZLYTE.
off-target kinases (Homo sapiens, UniProt P00519, E255K), sequence (P00519 whole entry E255K): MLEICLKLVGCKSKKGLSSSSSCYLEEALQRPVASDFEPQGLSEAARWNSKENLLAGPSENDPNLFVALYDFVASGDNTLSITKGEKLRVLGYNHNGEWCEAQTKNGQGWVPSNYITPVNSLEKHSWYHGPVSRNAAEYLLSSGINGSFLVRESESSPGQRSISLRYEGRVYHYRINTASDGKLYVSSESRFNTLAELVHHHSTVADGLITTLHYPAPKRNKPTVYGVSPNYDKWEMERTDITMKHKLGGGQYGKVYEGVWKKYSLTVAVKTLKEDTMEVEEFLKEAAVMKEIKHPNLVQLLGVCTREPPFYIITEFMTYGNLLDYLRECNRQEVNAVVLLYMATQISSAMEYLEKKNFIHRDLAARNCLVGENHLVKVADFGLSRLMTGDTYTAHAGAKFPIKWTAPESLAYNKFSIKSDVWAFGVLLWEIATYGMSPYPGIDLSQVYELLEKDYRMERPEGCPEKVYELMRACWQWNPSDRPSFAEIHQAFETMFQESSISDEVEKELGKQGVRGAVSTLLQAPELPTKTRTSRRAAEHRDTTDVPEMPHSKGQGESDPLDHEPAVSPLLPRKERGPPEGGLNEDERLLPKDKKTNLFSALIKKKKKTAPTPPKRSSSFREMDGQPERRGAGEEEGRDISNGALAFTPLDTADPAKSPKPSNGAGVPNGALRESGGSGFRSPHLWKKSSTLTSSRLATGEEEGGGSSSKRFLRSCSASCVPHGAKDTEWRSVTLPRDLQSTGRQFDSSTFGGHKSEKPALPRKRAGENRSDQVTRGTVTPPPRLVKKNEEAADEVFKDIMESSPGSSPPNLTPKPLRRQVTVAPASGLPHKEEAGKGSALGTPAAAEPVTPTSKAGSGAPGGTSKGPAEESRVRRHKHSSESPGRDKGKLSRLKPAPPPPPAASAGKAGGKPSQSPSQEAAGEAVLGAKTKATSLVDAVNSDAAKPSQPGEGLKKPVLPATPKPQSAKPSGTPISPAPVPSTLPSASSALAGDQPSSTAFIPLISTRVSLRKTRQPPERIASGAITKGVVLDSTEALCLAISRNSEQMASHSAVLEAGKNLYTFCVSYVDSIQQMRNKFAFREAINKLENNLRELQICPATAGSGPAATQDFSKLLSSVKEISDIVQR
Assay [6] addresses off-target kinases (Homo sapiens, UniProt P34947). As to conditions: GRK5, ZLYTE, ATP Km app.
Assay [7] addresses off-target kinases (Homo sapiens, UniProt P49840). The conditions noted are these: GSK3A (GSK3 alpha), ZLYTE, ATP Km app.

Like-named read-outs stand apart in the source and are kept apart here.

In general, inhibition refers to the change of the read-out against control, counted positive when it falls.

off-target kinases (Homo sapiens, UniProt P35916), sequence (P35916 25-1363): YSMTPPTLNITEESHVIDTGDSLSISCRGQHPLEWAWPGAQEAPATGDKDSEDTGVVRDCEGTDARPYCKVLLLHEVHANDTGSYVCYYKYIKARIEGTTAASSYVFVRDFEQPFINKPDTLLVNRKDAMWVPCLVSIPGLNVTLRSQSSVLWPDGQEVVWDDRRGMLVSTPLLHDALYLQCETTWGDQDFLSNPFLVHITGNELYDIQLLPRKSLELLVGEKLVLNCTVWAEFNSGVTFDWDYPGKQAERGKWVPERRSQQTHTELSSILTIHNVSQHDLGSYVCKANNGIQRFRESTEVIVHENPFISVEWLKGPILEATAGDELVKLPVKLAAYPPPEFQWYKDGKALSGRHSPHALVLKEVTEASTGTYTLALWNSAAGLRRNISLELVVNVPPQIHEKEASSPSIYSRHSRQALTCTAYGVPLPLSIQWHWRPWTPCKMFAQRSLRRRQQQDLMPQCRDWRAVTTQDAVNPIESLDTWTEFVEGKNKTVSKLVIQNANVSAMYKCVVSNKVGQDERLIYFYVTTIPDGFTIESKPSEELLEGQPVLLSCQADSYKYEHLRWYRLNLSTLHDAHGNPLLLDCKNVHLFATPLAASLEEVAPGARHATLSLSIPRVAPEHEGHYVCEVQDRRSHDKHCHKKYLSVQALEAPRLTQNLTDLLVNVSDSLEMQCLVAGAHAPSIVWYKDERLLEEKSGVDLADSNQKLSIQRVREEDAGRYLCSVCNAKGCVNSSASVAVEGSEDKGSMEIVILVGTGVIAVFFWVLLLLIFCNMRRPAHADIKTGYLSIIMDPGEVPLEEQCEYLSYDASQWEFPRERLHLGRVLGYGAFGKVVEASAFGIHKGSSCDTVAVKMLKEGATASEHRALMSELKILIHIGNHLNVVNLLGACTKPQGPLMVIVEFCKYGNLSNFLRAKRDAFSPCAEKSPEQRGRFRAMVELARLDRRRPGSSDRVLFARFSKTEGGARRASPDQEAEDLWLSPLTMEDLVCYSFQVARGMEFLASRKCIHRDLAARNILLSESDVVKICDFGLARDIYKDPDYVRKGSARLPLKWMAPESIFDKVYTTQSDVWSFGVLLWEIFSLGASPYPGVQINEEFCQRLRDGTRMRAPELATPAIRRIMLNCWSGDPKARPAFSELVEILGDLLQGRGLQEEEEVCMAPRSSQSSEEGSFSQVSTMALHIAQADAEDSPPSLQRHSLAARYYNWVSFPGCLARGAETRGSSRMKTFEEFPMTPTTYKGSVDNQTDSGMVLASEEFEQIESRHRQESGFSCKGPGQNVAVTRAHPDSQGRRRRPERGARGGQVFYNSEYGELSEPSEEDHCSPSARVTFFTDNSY
off-target kinases (Homo sapiens, UniProt P49840), sequence (P49840 whole entry): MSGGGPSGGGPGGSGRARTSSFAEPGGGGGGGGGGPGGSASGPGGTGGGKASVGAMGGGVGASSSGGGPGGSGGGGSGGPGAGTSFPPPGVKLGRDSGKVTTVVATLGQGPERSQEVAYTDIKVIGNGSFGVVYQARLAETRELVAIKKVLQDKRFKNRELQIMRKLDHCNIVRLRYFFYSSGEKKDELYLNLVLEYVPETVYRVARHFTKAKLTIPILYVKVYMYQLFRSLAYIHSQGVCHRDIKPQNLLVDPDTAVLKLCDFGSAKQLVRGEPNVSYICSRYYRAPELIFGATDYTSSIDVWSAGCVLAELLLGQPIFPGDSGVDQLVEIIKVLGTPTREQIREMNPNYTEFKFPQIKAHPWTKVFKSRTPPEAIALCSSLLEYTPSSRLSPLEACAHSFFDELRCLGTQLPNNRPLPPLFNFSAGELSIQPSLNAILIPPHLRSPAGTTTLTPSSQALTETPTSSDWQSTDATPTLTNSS
off-target kinases (Homo sapiens, UniProt Q07912), sequence (Q07912 whole entry): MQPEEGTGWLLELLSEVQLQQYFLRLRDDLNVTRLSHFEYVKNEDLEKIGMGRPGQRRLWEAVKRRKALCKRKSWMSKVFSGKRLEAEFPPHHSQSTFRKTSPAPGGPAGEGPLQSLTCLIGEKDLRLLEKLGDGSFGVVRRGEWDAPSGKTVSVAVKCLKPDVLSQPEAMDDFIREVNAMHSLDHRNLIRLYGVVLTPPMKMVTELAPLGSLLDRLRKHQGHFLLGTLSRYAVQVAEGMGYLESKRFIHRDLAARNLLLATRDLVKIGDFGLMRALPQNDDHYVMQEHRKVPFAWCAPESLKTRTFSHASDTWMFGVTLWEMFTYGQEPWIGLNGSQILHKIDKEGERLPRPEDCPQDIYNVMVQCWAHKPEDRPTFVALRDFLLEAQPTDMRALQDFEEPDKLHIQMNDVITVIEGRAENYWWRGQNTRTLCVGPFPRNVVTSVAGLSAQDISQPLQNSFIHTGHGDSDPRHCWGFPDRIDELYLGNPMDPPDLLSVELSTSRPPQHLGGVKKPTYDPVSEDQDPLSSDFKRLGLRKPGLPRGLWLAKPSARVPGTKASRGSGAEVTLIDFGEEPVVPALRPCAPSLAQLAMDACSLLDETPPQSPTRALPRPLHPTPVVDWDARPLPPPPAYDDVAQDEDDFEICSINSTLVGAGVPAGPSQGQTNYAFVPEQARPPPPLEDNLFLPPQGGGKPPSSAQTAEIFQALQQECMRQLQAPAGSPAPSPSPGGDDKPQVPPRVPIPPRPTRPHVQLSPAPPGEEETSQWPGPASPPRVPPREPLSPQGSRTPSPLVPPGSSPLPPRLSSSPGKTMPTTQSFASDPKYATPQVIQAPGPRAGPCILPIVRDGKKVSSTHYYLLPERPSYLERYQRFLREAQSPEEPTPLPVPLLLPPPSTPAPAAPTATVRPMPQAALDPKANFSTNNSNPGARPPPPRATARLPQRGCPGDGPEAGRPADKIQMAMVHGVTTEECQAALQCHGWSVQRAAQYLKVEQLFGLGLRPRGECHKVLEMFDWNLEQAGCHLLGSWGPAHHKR
off-target kinases (Homo sapiens, UniProt Q04759), sequence (Q04759 whole entry): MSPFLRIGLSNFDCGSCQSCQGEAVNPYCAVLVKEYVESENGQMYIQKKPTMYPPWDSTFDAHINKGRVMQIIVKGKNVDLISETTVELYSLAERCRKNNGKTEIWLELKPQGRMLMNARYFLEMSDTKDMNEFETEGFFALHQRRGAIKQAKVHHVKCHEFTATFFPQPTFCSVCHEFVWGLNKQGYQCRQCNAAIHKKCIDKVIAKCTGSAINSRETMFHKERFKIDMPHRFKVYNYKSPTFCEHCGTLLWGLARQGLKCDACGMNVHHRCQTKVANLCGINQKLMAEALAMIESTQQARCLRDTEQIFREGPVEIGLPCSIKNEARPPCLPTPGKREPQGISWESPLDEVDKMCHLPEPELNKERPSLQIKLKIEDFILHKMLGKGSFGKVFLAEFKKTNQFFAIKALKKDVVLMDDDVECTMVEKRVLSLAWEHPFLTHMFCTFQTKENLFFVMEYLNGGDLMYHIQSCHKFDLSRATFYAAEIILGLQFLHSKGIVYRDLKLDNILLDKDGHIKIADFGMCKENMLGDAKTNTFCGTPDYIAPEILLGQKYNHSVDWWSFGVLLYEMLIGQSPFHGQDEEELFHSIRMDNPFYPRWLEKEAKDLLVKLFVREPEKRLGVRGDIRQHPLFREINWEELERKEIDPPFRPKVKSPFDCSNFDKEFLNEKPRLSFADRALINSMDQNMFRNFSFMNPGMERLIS

Regarding `N#Cc1cc(-c2ncnc(Nc3ccc(N4CCN(C5COC5)CC4)cc3)n2)ccc1OC1CCOCC1` [Compound 1, 5-(4-((4-(4-(oxetan-3-yl)piperazin-1-yl)phenyl)amino)-1,3,5-triazin-2-yl)-2-((tetrahydro-2H-pyran-4-yl)oxy)benzonitrile], the “% Inhibition 1” value at off-target kinases [1] is −6%. The “% Inhibition 2” value at off-target kinases [1] is listed as −17%. Further, the “% Inhibition Avg” value on off-target kinases [1] is listed as −12%. The inhibition at off-target kinases [2] (read-out: % Inhibition 1) amounted to 64%; on off-target kinases [2] (read-out: % Inhibition 2) it was 60%; at off-target kinases [2] (read-out: % Inhibition Avg), 62%; on off-target kinases [3] (read-out: % Inhibition 1) it was 73%; at off-target kinases [3] (read-out: % Inhibition 2), 73%; on off-target kinases [3] (read-out: % Inhibition Avg) it was 73%. In addition, the inhibition at off-target kinases [4] (read-out: % Inhibition 1) was 25%; on off-target kinases [4] (read-out: % Inhibition 2), 26%; at off-target kinases [4] (read-out: % Inhibition Avg) it was 25%; on off-target kinases [5] (read-out: % Inhibition 1), 53%; at off-target kinases [5] (read-out: % Inhibition 2), 50%; on off-target kinases [5] (read-out: % Inhibition Avg), 51%. Also, the inhibition at off-target kinases [6] (read-out: % Inhibition 1) was 5%; at off-target kinases [6] (read-out: % Inhibition 2), -10%; at off-target kinases [6] (read-out: % Inhibition Avg), -3%; on off-target kinases [7] (read-out: % Inhibition 1), 20%; on off-target kinases [7] (read-out: % Inhibition 2), 22%; on off-target kinases [7] (read-out: % Inhibition Avg), 21%.

These data come from patent US11572590B2, “Methods for evaluating tumor cell spheroids using 3D microfluidic cell culture device” (Dana-Farber Cancer Institute, Inc., priority 2017, dated 2023).
